Measurements as given in publication PMC6028423, “Synthetic molecular evolution of hybrid cell penetrating peptides” (Nature Communications, 2018).

Tests used:
[1] = system: RAW264.7 cells; assay: TAMRA delivery assay, flow cytometry; type: cell-based; settings: tested as peptide-TA; 0.5 µM peptide-TA + 4.5 µM peptide-C, 30 min, serum-free DMEM, trypsinized, live SYTOX Green-negative cells; temperature not given
Description: (§1) Parent and daughter sequences lacking the PNA cargo were characterized to determine the effect of the cargo on delivery. Sequences were labeled with the fluorophore tetramethylrhodamine (TAMRA) on a C-terminal cysteine residue (PDEP-TA) and their delivery to multiple human cell types was measured by flow cytometry. To test the efficiency under stringent conditions, we used peptide concentrations of only 5 μM total containing 0.5 μM dye-labeled peptide. Peptides were incubated with HeLa, RAW264.7, HepG2, and MCF-7 cells for 30 min at 4 °C, 21 °C, or 37 °C, followed by trypsinization to detach cells for counting and to digest any externally bound peptide. PDEP-TA conjugates are not toxic at this concentration range (Supplementary Figure 2). […]
(§2) HeLa, RAW264.7, HCT116, HepG2, and MCF-7 cells were plated in 12-well plates at 100,000 cells/well. […] Cells were transferred to a filter-topped flow cytometry tube and analyzed on a BD LSR II flow cytometer. Cells displaying a normal morphology were gated and first analyzed for GFP fluorescence using the […] laser. GFP-negative cells were used to generate a histogram of TAMRA fluorescence, measured with the 543 nM laser.
Supplementary Figure 4. […] The percent of the remaining cells testing positive for TAMRA fluorescence were defined as those with a fluorescence value ≥3000. Additionally, the mean fluorescence for all SYTOX negative cells was recorded.

[2] = system: HeLa, RAW264.7, HepG2, and MCF-7 cells; assay: TAMRA delivery, flow cytometry and confocal microscopy, statements over several cell types or cell type not stated; type: cell-based; settings: cell type and temperature not stated; threshold just above cells treated with free TAMRA; single example
Description: as §1, with “[…].” for “PDEP-TA conjugates are not toxic at this concentration range (Supplementary Figure 2).”
HeLa, RAW264.7, HCT116, HepG2, and MCF-7 cells were plated in 12-well plates at 100,000 cells/well. […] Cells were transferred to a filter-topped flow cytometry tube and analyzed on a BD LSR II flow cytometer. Cells displaying a normal morphology were gated and first analyzed for GFP fluorescence using the […] laser. GFP-negative cells were used to generate a histogram of TAMRA fluorescence, measured with the […] laser. […]
Cells were treated as described above for the TAMRA delivery assay and immediately imaged to avoid artifacts resulting from fixation. The distribution of TAMRA and Sytox Green was analyzed using a confocal scanning Nikon Eclipse Ti2 inverted microscope using a 40× oil-immersion objective. […]

[3] = system: HepG2 cells; assay: TAMRA delivery assay, flow cytometry; type: cell-based, human; settings: tested as peptide-TA; 0.5 µM peptide-TA + 4.5 µM peptide-C, 30 min, serum-free DMEM, trypsinized, live SYTOX Green-negative cells; temperature not given
Description: (§3) Parent and daughter sequences lacking the PNA cargo were characterized to determine the effect of the cargo on delivery. Sequences were labeled with the fluorophore tetramethylrhodamine (TAMRA) on a C-terminal cysteine residue (PDEP-TA) and their delivery to multiple human cell types was measured by flow cytometry. To test the efficiency under stringent conditions, we used peptide concentrations of only 5 μM total containing 0.5 μM dye-labeled peptide. Peptides were incubated with HeLa, RAW264.7, HepG2, and MCF-7 cells for 30 min at 4 °C, 21 °C, or 37 °C, followed by trypsinization to detach cells for counting and to digest any externally bound peptide. PDEP-TA conjugates are not toxic at this concentration range (Supplementary Figure 2). Flow cytometric analysis (Fig. 3 and Supplementary Figure 4) was used to count TAMRA-positive cells and to measure TAMRA intensity distributions. Confocal microscopy was used to visualize peptide distribution in cells for each cell type (Fig. 3). Time series confocal images of PDEP P17-TA incubated HeLa cells at 21 °C and 37 °C (Fig. 3a) show immediate punctate membrane association. At 37 °C, but not at 21 °C, uptake of dye in punctate structures is observed. At both temperatures, individual cells rapidly and stochastically show the appearance of TAMRA with a diffuse cytosolic distribution in addition to bright puncta. All PDEPs behave similarly and maximum intensity is reached by 30 min at all temperatures. Cell surface-bound peptide is not observed under flow cytometry conditions (Fig. 3a).
as §2, with “cells/well. After 24 h, cells were gently washed in PBS, topped with 500 µl of PDEP-TA solution containing 0.5 µM PDEP-TA + 4.5 µM PDEP-C in sfDMEM without phenol red, and incubated for 30 min at either 4 °C, 23 °C, or 37 °C.” for “cells/well.”
(§4) Supplementary Figure 4. Flow cytometry gating strategy for Peptide-C-TA treated cells. In this example, HeLa cells were treated with 5 μM P17-C-TA for 30 minutes at 37°C. Live cells were identified by forward and side scatter. Doublets were excluded in two gating steps using SSC-H x SSC-W and FSC-H x FSC-W. Cells with compromised membranes permitting SYTOX green entry were excluded. The percent of the remaining cells testing positive for TAMRA fluorescence were defined as those with a fluorescence value ≥3000. Additionally, the mean fluorescence for all SYTOX negative cells was recorded.

[4] = system: HeLa cells; assay: TAMRA delivery assay, flow cytometry; type: cell-based, human; settings: tested as peptide-TA; 0.5 µM peptide-TA + 4.5 µM peptide-C, 30 min, serum-free DMEM, trypsinized, live SYTOX Green-negative cells; temperature not given
Description: as §3
as §2, with “cells/well. After 24 h, cells were gently washed in PBS, topped with 500 µl of PDEP-TA solution containing 0.5 µM PDEP-TA + 4.5 µM PDEP-C in sfDMEM without phenol red, and incubated for 30 min at either 4 °C, 23 °C, or 37 °C.” for “cells/well.”
as §4

[5] = system: MCF-7 cells; assay: TAMRA delivery assay, flow cytometry; type: cell-based, human; settings: tested as peptide-TA; 0.5 µM peptide-TA + 4.5 µM peptide-C, 30 min, serum-free DMEM, trypsinized, live SYTOX Green-negative cells; temperature not given
Description: as §3
as §2, with “cells/well. After 24 h, cells were gently washed in PBS, topped with 500 µl of PDEP-TA solution containing 0.5 µM PDEP-TA + 4.5 µM PDEP-C in sfDMEM without phenol red, and incubated for 30 min at either 4 °C, 23 °C, or 37 °C.” for “cells/well.”
as §4

[6] = system: HeLa pTRE-LucIVS2-705 cells; assay: PNA705 mediated luciferase splice correction (luminescence per µg protein); type: cell-based, human; settings: for PNA705 delivery efficiency in words (Fig. 2a): tested as CPP-PNA705 conjugate, up to 5 µM
Description: Cells were treated for 30 min in serum-free media at 37 °C, and then allowed to recover for 24 h in complete media. […] After 24 h, cell lysates were assayed for luciferase by luminescence (Fig. 2a) and for splice corrected mRNA by quantitative PCR (Fig. 2b). To control for total cell density, lysates were also analyzed for total protein by the BCA assay.
HeLa pTRE-LucIVS2-705 cells were seeded on flat-bottom 96-well plates at 10,000 cells per well in 200 µl complete DMEM. The following day, cells were washed in phosphate buffered saline and topped with premixed 50 µl 2× serum/phenol red-free DMEM (Gibco) + 50 µl peptide cleavage solution (ddH2O + peptide). Cells were transfected for 30 min at 37 °C with 5% CO2. The transfection solution was removed, cells were topped with 100 µl complete DMEM. The next day (24-h recovery) cells were washed in PBS. Cells were lysed in 20 µl reporter lysis buffer (Promega E4030) following the manufacturer’s protocol. A volume of 10 μl of lysate from each well was transferred to a 96-well solid black plate; 100 μl of luciferase assay reagent from the Luciferase Assay System (Promega E1500) was added, the plate was agitated for 10 s, and luminescence was measured with a BioTek Synergy 2 plate reader with injector ports. Total protein was measured with a BCA assay (described below). Data were expressed as RLU per µg protein (RLU (µg protein)^−1). During screening, positive wells were defined as those whose RLU per µg protein values exceeded the average for the plate by at least three standard deviations. Subsequent PNA705 delivery experiments were conducted as described above except that volumes were scaled for 24-well plate format.
The remaining 10 µl of lysate from the splice correction assay was combined with 100 µl of the BCA reagents and incubated for 1–4 h at 37 °C per the manufacturer’s protocol. Absorbance at 562 nm was measured using a measured with a BioTek Synergy 2 plate reader.

[7] = system: HeLa pTRE-LucIVS2-705 cells; assay: qRT-PCR of correctly spliced luciferase mRNA; type: cell-based, human; settings: 1.25 µM CPP-PNA705, 30-min incubation, 24-h recovery
Description: To quantify splice correction at the mRNA level, we designed qRT-PCR primers to target the splice junction of the properly spliced mRNA transcript. […] We observe a >100 fold increase in properly spliced luciferase mRNA in cells treated with PDEP–PNA705 relative to control. At 5 μM, the most efficient chimera, P14-PNA705, is 30-fold better than tat, 7-fold better than penetratin, and 4-fold better than Arg9.
HeLa pTRE-LucIVS2 cells were treated as described above with PDEP–PNA705 constructs at varying concentrations. RNA was extracted using the Direct-Zol^TM RNA purification system (Zymo Research) and reverse transcribed with the iScript cDNA synthesis kit (Bio-Rad), and mRNA splice correction was detected using PowerUp SYBR Green master mix (ThermoFisher) on an Applied Biosystems QuantStudio 6 using the following primers sets: […]
The relative quantification of correctly spliced mRNA (90 bp amplicon) over background was calculated using the Pfaffl model.

Compound	RAW %+ (TAMRA-positive cells) [1] [%]	TAMRA-positive cells, example flow cytometry results (Fig. 3b) [2] [%]	HEPG2 %+ (TAMRA-positive cells) [3] [%]	HeLa %+ (TAMRA-positive cells) [4] [%]	MCF-7 %+ (TAMRA-positive cells) [5] [%]	PNA705 delivery efficiency, head-to-head comparison in the response to reviewers ([6]; PepB-PNA705, P17-PNA705, tat-PNA705 and no treatment, same approach as in the paper)	PNA705 delivery efficiency in words (Fig. 2a) [6]	increase in corrected mRNA over control [7]
CN(C)c1ccc2c(-c3ccccc3C(=O)[O-])c3ccc(N(C)C)cc3[o+]c2c1 [TAMRA, tetramethylrhodamine]	6.90	1.99	0.0	0.0	14.4			
(RXRRBR)2 [Peptide B, (RXRRBR)2, eight arginines and four linear linkers; drives delivery of splice correcting PMOs in vivo]						much more efficient than tat	relatively low PNA delivery efficiency	
Arg9	64.5		16.6	8.1	1.6		much better than tat itself	not measurably higher than control
